Results published in patent US10822317B2, “Methods and compositions for wound healing” (QBiotics Limited, priority 2013, dated 2020).

System: human PBMCs
Test: Gene expression (Illumina BeadChip) in human PBMCs
Type: cell-based
Conditions: 30 ng/mL
Experimental: Human peripheral blood mononuclear cells (PBMCs) were isolated by Ficoll-Paque sedimentation of heparinised blood from a human donor, and cultured in RPMI-1640 10% FCS. Following treatment with Compound 1 at 30 ng/mL, the monolayer was washed once with phosphate buffered saline (PBS) and the cells harvested with sterile scrapers and stored as pellets at −80° C.
RNA was extracted from 30 mg of frozen tumour or 1×10^7 cells using the QiagenRNeasyPlus Mini Kit, according to manufacturer's instructions, then quantitated with a NanoDrop instrument and integrity confirmed on denaturing agarose gels bearing a 1 kb DNA marker and stained with ethidium bromide.
Approximately 500 ng of total unlabelled RNA was adjusted to a final volume of 11 μL with nuclease-free water. The RNA was incubated with 9 μL of the reverse transcriptase master mix (1 μL of T7 Oligo (dT) Primer, 2 μL of 10× first strand buffer, 4 μL of dNTP mix, 1 μL of RNase inhibitor and 1 μL of ArrayScript) at 42° C. for 2 hr. This was followed by the second strand cDNA synthesis step which involved a further incubation at 16° C. for 2 hr with 80 µL of the second strand master mix (63 μL nuclease-free water, 10 μL 10× second strand buffer, 4 μL dNTP mix, […] and 1 μL RNase H). The cDNA was purified by filtering through a cDNA Filter Cartridge with 250 μL of cDNA binding buffer and washing with 500 μL of the wash buffer provided in the kit. Purified cDNA was eluted with 20 μL of 55° C. nuclease-free water. Each cDNA sample was incubated with 7.5 μL of the IVT master mix (2.5 μL of T7 10× reaction buffer, 2.5 μL of T7 enzyme mix and 2.5 μL biotin-NTP mix) at 37° C. for 16 hr. The reaction was stopped with the addition of 75 μL of nuclease-free water to each cRNA sample. The biotinylated, amplified RNA was purified by filtering the cRNA samples through cRNA Filter Cartridges with 350 μL of cRNA binding buffer and 250 μL of 100% ethanol mixed together prior to loading onto the filters. The cRNA filter cartridges with attached RNA were then washed with 650 μL of wash buffer before eluting purified cRNA with 200 μL of 55° C. nuclease-free water.
The cRNA samples were heated at 65° C. for 5 min and collected by pulse centrifugation. After heating at 65 degrees for 5 min, approximately 750 ng of the cRNA sample was aliquoted into separate tubes to which were added ˜5 μL of RNase-free water and 10 μL of Hyb Mix. Approximately 15 μL of the prepared cRNA mix was loaded onto the Illumina Expression BeadChips. Subsequent steps of hybridisation and washing were carried out according to the Whole-Genome Gene Expression Direct Hybridization Assay Guide supplied by Illumina.
The Human HT-12 v4 Expression BeadChips cover more than 47,000 transcripts and known splice variants across the human transcriptome. The MouseRef-8 v2.0 Expression BeadChips cover approximately 25,600 well-annotated RefSeq (Reference Sequence) transcripts, comprising over 19,000 unique genes.
BeadChips were read by the iScan System, and transferred via GenomeStudio into GeneSpring GX v12.5 (Agilent Technologies, Santa Clara, Calif., USA). The expression values were normalized using quantile normalization with default settings. The entities were filtered based on the detection score calculated by GenomeStudio where p≤0.05 was considered significant.
Human peripheral blood mononuclear cells (PBMCs) are rich in lymphocytes and macrophage precursors (monocytes) involved in the production of cytokines and tissue remodelling enzymes relevant to the wound healing process. […] It should therefore be noted that the genes shown in Table 14 illustrate the range of relevant molecules regulated by Compound 1 in a mixed lymphoid population in vitro, without specifying the order of tissue-specific expression in vivo.

CC=C(C)C(=O)OC1C(C)C2(O)C(C3OC3(CO)C(O)C3(O)C(=O)C(C)=CC32)C2C(C)(C)C12OC(=O)C(C)CC (centres unmarked) [Compound 1, 12-tigloyl-13-(2-methylbutanoyl)-6,7-epoxy-4,5,9,12,13,20-hexahydroxy-1-tigliaen-3-one]
CCL3L1: Direction of regulation (4 h): Up | CCL7: Direction of regulation (4 h): Up | CXCL2: Direction of regulation (4 h): Up | GM-CSF: Direction of regulation (4 h): Up | HBEGF: Direction of regulation (4 h): Up | KLF10: Direction of regulation (4 h): Up | MMP1: Direction of regulation (4 h): Up | MMP7: Direction of regulation (4 h): Up | MMP10: Direction of regulation (4 h): Up | MMP19: Direction of regulation (4 h): Up | TGM3: Direction of regulation (4 h): Up | THBS1: Direction of regulation (4 h): Down | THBS1: Fold change in expression (4 h, Down): −47.8 fold | CCL3L1: Fold change in expression (4 h, Up): 5.3 fold | CCL7: Fold change in expression (4 h, Up): 9.4 fold | CXCL2: Fold change in expression (4 h, Up): 3.5 fold | GM-CSF: Fold change in expression (4 h, Up): 4.3 fold | HBEGF: Fold change in expression (4 h, Up): 2.7 fold | KLF10: Fold change in expression (4 h, Up): 5.9 fold | MMP1: Fold change in expression (4 h, Up): 3.1 fold | MMP7: Fold change in expression (4 h, Up): 3.5 fold | MMP10: Fold change in expression (4 h, Up): 3.2 fold | MMP19: Fold change in expression (4 h, Up): 11.6 fold | TGM3: Fold change in expression (4 h, Up): 2.3 fold | CCL1: Direction of regulation (24 h): Up | CCL3: Direction of regulation (24 h): Up | CCL3L1: Direction of regulation (24 h): Up | CCL7: Direction of regulation (24 h): Up | CSF1: Direction of regulation (24 h): Up | CXCL1: Direction of regulation (24 h): Up | CXCL2: Direction of regulation (24 h): Up | CXCL5: Direction of regulation (24 h): Up | CXCL7: Direction of regulation (24 h): Up | CXCL13: Direction of regulation (24 h): Up | GM-CSF: Direction of regulation (24 h): Up | HBEGF: Direction of regulation (24 h): Up | IL1α: Direction of regulation (24 h): Up | IL1β: Direction of regulation (24 h): Up | IL6: Direction of regulation (24 h): Up | IL10: Direction of regulation (24 h): Up | IL24: Direction of regulation (24 h): Up | KLF10: Direction of regulation (24 h): Up | MMP1: Direction of regulation (24 h): Up | MMP7: Direction of regulation (24 h): Up | MMP9: Direction of regulation (24 h): Down | MMP10: Direction of regulation (24 h): Up | MMP19: Direction of regulation (24 h): Up | TGM2: Direction of regulation (24 h): Up | TGM3: Direction of regulation (24 h): Up | TGM5: Direction of regulation (24 h): Down | THBS1: Direction of regulation (24 h): Down | TIMP2: Direction of regulation (24 h): Down | MMP9: Fold change in expression (24 h, Down): −22.9 fold | TGM5: Fold change in expression (24 h, Down): −3.3 fold | THBS1: Fold change in expression (24 h, Down): −101.5 fold | TIMP2: Fold change in expression (24 h, Down): −10.9 fold | CCL1: Fold change in expression (24 h, Up): 39.8 fold | CCL3: Fold change in expression (24 h, Up): 56.9 fold | CCL3L1: Fold change in expression (24 h, Up): 72.3 fold | CCL7: Fold change in expression (24 h, Up): 54.5 fold | CSF1: Fold change in expression (24 h, Up): 5.1 fold | CXCL1: Fold change in expression (24 h, Up): 15.5 fold | CXCL2: Fold change in expression (24 h, Up): 73.5 fold | CXCL5: Fold change in expression (24 h, Up): 8.1 fold | CXCL7: Fold change in expression (24 h, Up): 17.5 fold | CXCL13: Fold change in expression (24 h, Up): 2.2 fold | GM-CSF: Fold change in expression (24 h, Up): 34.6 fold | HBEGF: Fold change in expression (24 h, Up): 5.1 fold | IL1α: Fold change in expression (24 h, Up): 14.6 fold | IL1β: Fold change in expression (24 h, Up): 15.4 fold | IL6: Fold change in expression (24 h, Up): 33.1 fold | IL10: Fold change in expression (24 h, Up): 2.1 fold | IL24: Fold change in expression (24 h, Up): 4.6 fold | KLF10: Fold change in expression (24 h, Up): 9.3 fold | MMP1: Fold change in expression (24 h, Up): 4.2 fold | MMP7: Fold change in expression (24 h, Up): 7.4 fold | MMP10: Fold change in expression (24 h, Up): 52 fold | MMP19: Fold change in expression (24 h, Up): 2.6 fold | TGM2: Fold change in expression (24 h, Up): 12.2 fold | TGM3: Fold change in expression (24 h, Up): 28.4 fold | CCL1: Direction of regulation (96 h): Up | CCL3L1: Direction of regulation (96 h): Up | CCL7: Direction of regulation (96 h): Up | CXCL5: Direction of regulation (96 h): Up | CXCL7: Direction of regulation (96 h): Up | CXCL13: Direction of regulation (96 h): Up | GM-CSF: Direction of regulation (96 h): Up | MMP7: Direction of regulation (96 h): Up | TGM2: Direction of regulation (96 h): Up | CCL1: Fold change in expression (96 h, Up): 42.6 fold | CCL3L1: Fold change in expression (96 h, Up): 4.2 fold | CCL7: Fold change in expression (96 h, Up): 4.8 fold | CXCL5: Fold change in expression (96 h, Up): 15.1 fold | CXCL7: Fold change in expression (96 h, Up): 37.4 fold | CXCL13: Fold change in expression (96 h, Up): 23.5 fold | GM-CSF: Fold change in expression (96 h, Up): 6 fold | MMP7: Fold change in expression (96 h, Up): 117.3 fold | TGM2: Fold change in expression (96 h, Up): 4.4 fold
